Some test systems named below: T-47D breast; DU-145 prostate; UO-31 renal; K-562 leukemia; LOX IMVI melanoma; RPMI-8226 leukemia; SK-MEL-2 melanoma; SNB-19 CNS.
What all share (assay): inhibition of tumour cell growth, NCI panel, 48 h

Values joined by “and” are separate entries in the source; they are usually repeats but may differ in a detail not shown here. Equal values may be shown once.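 Tested at 5 concentrations; 48 h exposure; 96-well plates; endpoints linearly interpolated, else capped at highest concentration. GI50 marks 50% less growth. TGI is the concentration that stops growth completely.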 A value given as a limit tells only on which side of the number the result lay.

Take `C[C@]12CC[C@@H]3c4ccc(O)cc4CC[C@H]3[C@@H]1CC[C@@H]2NS(=O)(=O)c1ccc(-c2ccccc2)cc1`: the GI50 was 3.47 µM with T-47D breast; 6.54 µM in the assay on DU-145 prostate; 3.56 µM with UO-31 renal; 3.48 µM with K-562 leukemia; 10.6 µM in the assay on LOX IMVI melanoma; 2.51 µM with RPMI-8226 leukemia. In addition, the GI50 was 3.78 µM in the assay on SK-MEL-2 melanoma and 4.92 µM with SNB-19 CNS. In addition, the TGI is 49 µM in the assay with T-47D breast; > 100 µM in the assay with DU-145 prostate; > 100 µM in the assay with UO-31 renal; > 100 µM with K-562 leukemia; 23.9 µM with LOX IMVI melanoma; 11.4 µM with RPMI-8226 leukemia. Moreover, the figures for the TGI in the assay with SK-MEL-2 melanoma and in the assay on SNB-19 CNS were 13.6 µM and > 100 µM, respectively.

As to `COc1cc2c(cc1OC)[C@H]1C(=O)c3cc4c(cc3[C@H]1N(C)C2=O)OCO4`, the TGI in the assay with T-47D breast was > 100 µM; in the assay with DU-145 prostate, > 100 µM; with UO-31 renal it was > 39.3 µM; in the assay on K-562 leukemia it was > 100 µM; in the assay on LOX IMVI melanoma, > 40.8 µM; in the assay with RPMI-8226 leukemia, > 100 µM. The TGI in the assay with SK-MEL-2 melanoma and with SNB-19 CNS was > 100 µM in each case.

On to `O=c1[nH]c(-c2ccccn2)nc2sc3c(c12)CCCCCC3`, for which the GI50 in the assay with T-47D breast is 5.54 µM; with DU-145 prostate it was 6.73 µM; with UO-31 renal, 5.87 µM; with K-562 leukemia, 0.99 µM; with LOX IMVI melanoma, 1.09 µM; with RPMI-8226 leukemia, 3.63 µM. Further, the GI50 in the assay with SK-MEL-2 melanoma was > 100 µM. The TGI with T-47D breast, with DU-145 prostate, in the assay on UO-31 renal, with K-562 leukemia, in the assay with LOX IMVI melanoma and with RPMI-8226 leukemia was > 100 µM throughout. The TGI in the assay with SK-MEL-2 melanoma is > 100 µM.

`CC(=O)Nc1ccc(-n2cnc3cc(-c4ccc(OCCN5CCCCC5)cc4)ccc32)cc1`: the GI50 in the assay with T-47D breast is 6.34 µM; with DU-145 prostate, 10.2 µM; in the assay with UO-31 renal, 2.33 µM; with K-562 leukemia, 0.944 µM; with LOX IMVI melanoma it was 4.5 µM; with RPMI-8226 leukemia, 5.16 µM. Also, the GI50 in the assay on SK-MEL-2 melanoma is 5.81 µM; in the assay with SNB-19 CNS, 8.53 µM. Moreover, the TGI in the assay on T-47D breast was 17.2 µM; with DU-145 prostate it was > 33.3 µM; with UO-31 renal, 7.06 µM; with K-562 leukemia, > 33.3 µM; in the assay with LOX IMVI melanoma it was 8.88 µM; in the assay on RPMI-8226 leukemia, 12.7 µM. For the same compound, the TGI worked out at 11.5 µM with SK-MEL-2 melanoma and 33.1 µM with SNB-19 CNS.

On to `Cc1cc(N)c2ccccc2[n+]1CCCCCCCCCC[n+]1c(C)cc(N)c2ccccc21`, for which the GI50 in the assay with T-47D breast is 0.0959 µM; in the assay with DU-145 prostate it was 0.23 µM; in the assay on UO-31 renal, 0.954 µM and 2.84 µM; with K-562 leukemia, 0.137 µM; with RPMI-8226 leukemia, 0.0435 µM and 0.324 µM; with SK-MEL-2 melanoma, 0.674 µM and 1.4 µM. For the same compound, the TGI in the assay on DU-145 prostate is 2.59 µM and 20.2 µM; in the assay with UO-31 renal, > 50 µM and 12.9 µM and 14 µM; in the assay with K-562 leukemia, 2.22 µM and 3.84 µM and 12.4 µM; in the assay on LOX IMVI melanoma, 2.29 µM; in the assay on RPMI-8226 leukemia, 0.859 µM and 2.61 µM and 2.71 µM; with SK-MEL-2 melanoma, 1.93 µM and 9.03 µM and 3.78 µM. In the assay with SNB-19 CNS, the TGI is > 26.1 µM and 2.96 µM and 16.2 µM.

As to `O=C(Nc1ccccc1)Nc1ccccc1CNc1nc(Nc2ccc(OCCN3CCCC3)cc2)ncc1Cl`, the GI50 is 2.75 µM with T-47D breast; 5.55 µM in the assay with DU-145 prostate; 2.57 µM in the assay on UO-31 renal; 1.67 µM with K-562 leukemia; 1.02 µM in the assay on LOX IMVI melanoma; 1.33 µM in the assay with RPMI-8226 leukemia. Besides, the GI50 was 4.74 µM with SK-MEL-2 melanoma and 5.53 µM with SNB-19 CNS. The TGI in the assay on T-47D breast is 20.8 µM; in the assay with DU-145 prostate, 12.4 µM; in the assay with UO-31 renal, 10.3 µM; in the assay on K-562 leukemia, > 50 µM; in the assay on LOX IMVI melanoma it was 2.11 µM; in the assay on RPMI-8226 leukemia, 3.6 µM. For the same compound, the TGI in the assay on SK-MEL-2 melanoma was 13.5 µM; with SNB-19 CNS it was 12.5 µM.

Regarding `O=C(CC(C(=O)O)N1CCOCC1)c1ccccc1` (configuration not stated), the TGI in the assay on T-47D breast is > 100 µM; in the assay with DU-145 prostate, 69.4 µM; in the assay on K-562 leukemia, 49.1 µM; in the assay on LOX IMVI melanoma, 33.6 µM; in the assay with RPMI-8226 leukemia, 42.1 µM; with SK-MEL-2 melanoma, 34.9 µM. This compound returned a TGI with SNB-19 CNS of 53.4 µM.

Regarding `CC1SC2(CCCCC2)N(NC(=O)c2[nH]c3ccc(F)cc3c2-c2ccccc2)C1=O` (configuration not stated), the GI50 with T-47D breast was > 100 µM; in the assay with DU-145 prostate, > 100 µM; in the assay on UO-31 renal, > 100 µM; in the assay with K-562 leukemia, 35.4 µM; in the assay with LOX IMVI melanoma it was > 100 µM; in the assay with RPMI-8226 leukemia it was 41.2 µM. The GI50 in the assay with SK-MEL-2 melanoma is 76.2 µM; in the assay with SNB-19 CNS, 55.6 µM. Besides, the TGI with T-47D breast, with DU-145 prostate, in the assay with UO-31 renal, in the assay with K-562 leukemia, in the assay on LOX IMVI melanoma and in the assay with RPMI-8226 leukemia was > 100 µM throughout. Moreover, the TGI with SK-MEL-2 melanoma and in the assay with SNB-19 CNS was > 100 µM in each case.

With `C=CC[PH+](c1ccccc1)c1ccccc1.C=CC[PH+](c1ccccc1)c1ccccc1.[Cl][Pt][Cl]`, the GI50 in the assay with T-47D breast was 4.59 µM; with DU-145 prostate it was 12.7 µM; with UO-31 renal, 3.95 µM; in the assay on K-562 leukemia it was 3.27 µM; with LOX IMVI melanoma, 2.1 µM; in the assay on RPMI-8226 leukemia, 3.18 µM. Also, the GI50 in the assay on SK-MEL-2 melanoma was 18.3 µM; with SNB-19 CNS, 14.2 µM. Moreover, the TGI in the assay on T-47D breast was 24.6 µM; in the assay with DU-145 prostate, 30.2 µM; with UO-31 renal, 16.4 µM; with K-562 leukemia, 11.9 µM; in the assay on LOX IMVI melanoma, 4.7 µM; with RPMI-8226 leukemia, 13.6 µM. The TGI in the assay with SK-MEL-2 melanoma was 40.4 µM; in the assay with SNB-19 CNS, 32.4 µM.

Take `COc1ccc(N(Cc2cc(OC)c(OC)c(OC)c2)C2OC(=O)c3ccccc32)cc1` (configuration not stated): the GI50 was 78 µM in the assay with T-47D breast; 0.886 µM with DU-145 prostate; 2.3 µM in the assay on UO-31 renal; 0.346 µM in the assay on K-562 leukemia; 0.712 µM in the assay with LOX IMVI melanoma; 0.539 µM in the assay on RPMI-8226 leukemia. The TGI in the assay with T-47D breast is > 100 µM; with DU-145 prostate it was 54.3 µM; in the assay on UO-31 renal it was > 100 µM; with K-562 leukemia, > 100 µM; with LOX IMVI melanoma, > 100 µM; in the assay with RPMI-8226 leukemia, > 100 µM.

Take `CCOC(=O)C1=C(c2ccccc2)N(Cc2ccccc2)C2(O)C=CC(=O)C3C(=O)N(c4ccccc4)C(=O)C132` (configuration not stated): the GI50 with T-47D breast was 1.67 µM; in the assay on DU-145 prostate, 1.65 µM; with K-562 leukemia it was 2.2 µM; with LOX IMVI melanoma, 1.34 µM; in the assay with RPMI-8226 leukemia it was 1.27 µM; in the assay with SNB-19 CNS, 2 µM. For the same compound, the TGI was 4.44 µM in the assay with T-47D breast; 3.92 µM in the assay with DU-145 prostate; 8.79 µM in the assay on K-562 leukemia; 2.67 µM in the assay with LOX IMVI melanoma; 4.35 µM in the assay on RPMI-8226 leukemia; 4.59 µM in the assay on SNB-19 CNS.

For `O=C(CN=Cc1cccs1)CSC(c1ccccc1)c1ccccc1`, the GI50 with T-47D breast was 20.1 µM; with DU-145 prostate, 34 µM; in the assay on K-562 leukemia, 15.8 µM; in the assay on LOX IMVI melanoma, 25.8 µM; in the assay with RPMI-8226 leukemia, 12.1 µM; with SK-MEL-2 melanoma it was 19 µM. Also, the GI50 in the assay with SNB-19 CNS is 32.5 µM. The TGI with T-47D breast was 84.3 µM; in the assay on DU-145 prostate, > 100 µM; with K-562 leukemia, 54.1 µM; with LOX IMVI melanoma it was 82.2 µM; in the assay with RPMI-8226 leukemia it was 28.7 µM; in the assay on SK-MEL-2 melanoma it was 34.8 µM. Besides, the TGI with SNB-19 CNS was > 100 µM.

For the compound `COc1ncnc2c(-c3ccco3)cn(COCc3ccccc3)c12`, the GI50 was 2.98 µM with T-47D breast; > 50 µM in the assay with DU-145 prostate; > 50 µM with K-562 leukemia; > 50 µM with LOX IMVI melanoma; 4.87 µM in the assay on RPMI-8226 leukemia; 48.8 µM in the assay with SK-MEL-2 melanoma. For the same compound, the GI50 in the assay with SNB-19 CNS was > 50 µM. Also, the TGI in the assay with T-47D breast, in the assay on DU-145 prostate, in the assay on K-562 leukemia, with LOX IMVI melanoma, with RPMI-8226 leukemia and in the assay with SK-MEL-2 melanoma was > 50 µM throughout. Besides, in the assay with SNB-19 CNS, the TGI is > 50 µM.

Take `C=C(C)[C@]12CC(C)C34OC(/C=C\C=C\CCCCCCCCC)(O[C@@H]1[C@@H]3[C@@H]1O[C@]1(CO)[C@@H](O)[C@]1(O)C(=O)C(C)=C[C@@H]41)O2` (some centres not stated): the TGI was 26.5 µM in the assay with T-47D breast; 22.1 µM in the assay on DU-145 prostate; 24.8 µM with UO-31 renal; > 35 µM in the assay with K-562 leukemia; 3.88 µM in the assay on LOX IMVI melanoma; 17 µM in the assay on RPMI-8226 leukemia. Also, the TGI with SNB-19 CNS stood at 30.5 µM. In addition, the GI50 in the assay with K-562 leukemia was < 0.0001 µM; with LOX IMVI melanoma, 1.48 µM.

On to `COc1cc(/C=C\c2cccnc2Nc2ccccc2)cc(OC)c1OC`, for which the GI50 with T-47D breast was 5.3 µM; with DU-145 prostate, 6.22 µM; with UO-31 renal it was 5.09 µM; with LOX IMVI melanoma, 4.51 µM; in the assay with RPMI-8226 leukemia, 6.83 µM; in the assay with SK-MEL-2 melanoma it was 8 µM. In the assay with SNB-19 CNS, the GI50 was 6.8 µM. Also, the TGI in the assay on T-47D breast was 47.6 µM; in the assay on DU-145 prostate it was > 100 µM; in the assay on UO-31 renal, 72.8 µM; with LOX IMVI melanoma it was 24.6 µM; with RPMI-8226 leukemia, 34.8 µM; in the assay with SK-MEL-2 melanoma, 28.8 µM. The TGI in the assay on SNB-19 CNS was > 100 µM.

The values are drawn from PubChem BioAssay (NCI).
